From US7173014B2, “HIV-specific synthetic oligonucleotides and methods of their use” (priority 1997, dated 2007)

Tests used:
[1] = test system: monocyte-macrophage-tropic strains BaL and ADA; assay: Anti-HIV assay in fresh human monocyte-macrophages; assay type: cell-based, HIV-1
Procedure: In addition to these T-tropic strains, the activity of the compounds was also evaluated against the monocyte-macrophage strains BaL and ADA. Oligos 12 and 32 according to the invention, as well as Oligo 41 are active against low passage clinical T-tropic strains of HIV-1. The activity of the compounds varies from strain to strain. The compounds were not active against the monocyte-macrophage-tropic strains BaL and ADA.
For isolation of adherent cells, 3×10^6 non-PHA stimulated peripheral blood cells were resuspended in Hanks buffered saline (with calcium and magnesium) supplemented with 10% human AB serum. The cells were placed in a 24-well microtiter plate at 37° C. for 2 hours. Non-adherent cells were removed by vigorously washing six times. The adherent cells were cultured for 7 days in RPMI 1640 tissue culture medium with 15% fetal bovine serum. The cultures were carefully monitored for confluency during this incubation period. Infection of the cells was performed with the monocytotropic HIV-1 strains BaL or ADA and the matched pair of AZT-sensitive and AZT-resistant virus isolates. Each of these virus isolates was obtained from the NIAID AIDS Research and Reference Reagent Program. High titer pools of each of these viruses have been harvested from infected cultures of peripheral blood adherent cells and frozen in 1.0 ml aliquots at −80° C. Monocyte-macrophage monolayers were infected at an MOI of 0.1. Compounds to be evaluated in the monocyte-macrophage assay are added to the monolayers shortly before infection in order to maximize the potential for identifying active compounds.
At 2 days post-infection, the medium was decanted and the cultures washed twice with complete medium in order to remove excess virus. […] Control curves are generated in each assay to accurately quantify the amount of capsid protein in each sample. Data was obtained by spectrophotometric analysis at 450 nm using a plate reader (Molecular Devices Vmax). P24 concentrations were calculated from the optical density values by use of the Molecular Device software package Soft Max.

HIV-2 (ROD) = assay: XTT-based anti-HIV assay, HIV-2; assay type: cell-based; conditions: XTT assay
Description: The initial experiment performed involved evaluation of Oligos 12, 32, and 41 against three laboratory strains of HIV-1 (IIIB, RF and SK1) and one strain of HIV-2 (ROD) in parallel with the positive control compound ddC in the XTT-based anti-HIV assay. All these oligonucleotides are active against both HIV-1 and HIV-2.
CEM-SS sells (AIDS Research and Reference Reagent Program, NIH) or other established human T cell lines used in these experiments were passaged in T-150 flasks for use in the assay. On the day preceding the assay, the cells were split 1:2 to assure they would be in an exponential growth phase at time of infection. On the day of assay the cells were washed twice with tissue culture medium and resuspended in fresh tissue cultures medium. Total cell and viability counting was performed using a hemacytometer and trypan blue dye exclusion. Cell viability was greater than 95% for the cells to be utilized in the assay. The cells were pelleted and resuspended at 2.5×10^4 cells per ml in tissue culture medium. Cells were added to the drug-containing plates in a volume of 50 μl.
A pretitered aliquot of virus was removed from the freezer −80° C.) and allowed to thaw slowly to room temperature in a biological safety cabinet. The virus was resuspended and diluted into tissue culture medium such that the amount of virus added to each well in a volume of 50 μl will be the amount determined to give complete cell killing at 6 days post-infection. In general the virus pools produced with the IIIB isolate of HIV required the addition of 5 μl of virus per well.
Each plate contained cell control wells (cells only), virus control wells (cells plus virus), drug toxicity control wells (cells plus drug only), drug colorimetric control wells (drug only) as well as experimental wells (drug plus cells plus virus).
After 6 days of incubation at 37° C. in a 5% CO2 incubator, the test plates were analyzed by staining with the tetrazolium dye XTT. XTT-tetrazolium is metabolized by the mitochondrial enzymes of metabolically active cells to a soluble formazan product, allowing the rapid quantitative analysis of the inhibition of HIV-induced cell killing by anti-HIV test substances. On day 6 post-infection plates were removed from the incubator and observed. The use of round bottom microtiter plates allows rapid macroscopic analysis of the activity of a given test compound by the evaluation of pellet size. The results of the macroscopic observations were confirmed and enhanced by further microscopic analysis.
XTT solution was prepared daily as a stock of 1 mg/ml in PBS. Phenazine methosulfate (PMS) solution was prepared at 15 mg/ml in PBS and stored in the dark at −20° C. XTT/PMS stock was prepared immediately before use by diluting the PMS 1:100 into PBS and adding 40 μl per ml of XTT solution. Fifty microliters of XTT/PMS was added to each well of the plate and the plate was incubated for an additional 4 hours at 37° C. Adhesive plate sealers were used in place of the lids, the sealed plate was inverted several times to mix the soluble formazan product and the plate was read spectrophotometrically at A450 nm with a Molecular Devices Vmax plate reader.

[2] = test system: fresh human peripheral blood mononuclear cells; assay: Toxicity in uninfected and HIV-1 infected fresh human PBMC (XTT, MTT, trypan blue, tritiated thymidine); assay type: cell-based
Procedure: In yet another experiment, the toxicity of Oligo 41 was evaluated in uninfected and HIV-1 infected fresh human peripheral blood mononuclear cells, using a variety of quantitative endpoints. Toxicity was evaluated using the tetrazolium dyes XTT or MTT, trypan blue cell and cell viability counting and the incorporation of tritiated thymidine. Two replicate assays were performed. In the first assay, Oligo 41 was used at a high test concentration of 50 μg/ml and toxicity was evaluated on day 7. […] A second assay was performed to further evaluate toxicity at higher compound concentration and with longer exposure to the compound.
For the PBL assay, PHA-P stimulated cells from at least two normal donors were pooled, set in fresh medium at 2×10^6/ml, and plated in the interior wells of a 96 well round bottom microplate at 50 μL/well. Test drug dilutions were prepared at a 2× concentration in microtiter tubes, and 100 μl of each concentration was placed in appropriate wells in a standard format. Fifty microliters of a predetermined dilution of virus stock was placed in each test well. […]
Tritiated thymidine incorporation was measured in parallel cultures at day 7. […] The filters were dried, placed in a scintillation vial with 1 ml of scintillation cocktail and incorporated radioactivity was quantified on a liquid scintillation counter (e.g., Packard Tri-Carb 1900 TR450).

## Oligo 41: oligonucleotide having SEQ ID NO:6; sequence not printed, not listed in TABLE 2 (UCGCACCCATCTCTCTCCUUC; chemistry not given here)
[1]
  activity against monocyte-macrophage-tropic strains BaL and ADA: not active
HIV-2 (ROD); compared with the HIV-1 strains
  level of activity against the HIV-2 strain ROD: enhanced level of activity
HIV-2 (ROD); strain ROD
  activity against HIV-2: active
[2]; high test concentration 50 μg/ml, day 7, any quantitative endpoint
  toxicity: No toxicity was detected
[2]; high test concentration 150 μg/ml, exposure extended to 14 days
  toxicity: no toxicity was detected
